Laboratory results published in patent US5039684A, “Tetrazole amide derivatives of heterocyclic alkenyl acid and their use as antiallergic substances” (Valeas S. p. A., priority 1989, dated 1991).

Assays:
[1] = Acute toxicity in the mouse, oral administration; type: in vivo; details: mouse, in vivo, po, 1000 mg/kg, oral, 1000 mg/kg/os; read-out: mortality (%EAD)
Method: (§1) Acute toxicity was evaluated in the mouse by administering the compounds orally at scalar doses to a maximum of 1000 mg/kg to evaluate the 50% lethal dose (LD50). The compounds were administered in carboxymethylcellulose (0.5%) in a volume of […] to male mice (Swiss stock) of average weight 20 g.

mouse = assay: Acute toxicity in the mouse, oral administration; type: in vivo
Method: as §1

[2] = tested on: passive cutaneous anaphylaxis; assay: PCA test on the rat, intravenous administration just before challenge with antigen; type: in vivo, rat (male Sprague Dawley); details: Rattus norvegicus, iv, immediately before challenge; for inhibition in vivo at 1 mg/kg / inhibition in vivo at 0.3 mg/kg: read-out: inhibition (%); for ED50: read-out: ED50 (conf. lim) P = 0.05
Method: (§2) The serum, obtained from rats actively sensitized with ovalbumin (antigen) and suitably diluted, was injected intradermically into the shaven back of male Sprague Dawley rats (2 wheals per rat).
(§3) The rats were treated intravenously after 24 hours with a solution of ovalbumin and Evans blue. Thirty minutes later they were killed and the diameter and intensity of the blue ring formed at the site of the intradermic injection were measured.
(§4) For each treated group (5 per group) the % inhibition was then calculated with respect to the control group.
The pharmacological screening was effected by administering the compounds of the present invention intravenously and orally.
(§5) For intravenous administration (2 ml/kg), those compounds in which R1 =H (see formula I) were dissolved in an aqueous 1% NaHCO3 solution whereas for oral administration (4 ml/Kg) they were either suspended in 0.5% carboxymethylcellulose or dissolved in an aqueous 3% NaHCO3 solution.

[3] = tested on: passive cutaneous anaphylaxis; assay: PCA test on the rat, oral administration before challenge with antigen; type: in vivo, rat (male Sprague Dawley); details: for inhibition in vivo at 3 mg/kg / inhibition in vivo at 10 mg/kg / inhibition in vivo at 30 mg/kg: read-out: inhibition (%)
Method: The serum, obtained from rats actively sensitized with ovalbumin (antigen) and suitably diluted, was injected intradermically into the shaven back of male Sprague Dawley rats (2 wheals per rat). The rats were treated intravenously after 24 hours with a solution of ovalbumin and Evans blue. Thirty minutes later they were killed and the diameter and intensity of the blue ring formed at the site of the intradermic injection were measured. […] The pharmacological screening was effected by administering the compounds of the present invention intravenously and orally. For intravenous administration (2 ml/kg), those compounds in which R1 =H (see formula I) were dissolved in an aqueous 1% NaHCO3 solution whereas for oral administration (4 ml/Kg) they were either suspended in 0.5% carboxymethylcellulose or dissolved in an aqueous 3% NaHCO3 solution.

[4] = tested on: passive cutaneous anaphylaxis; assay: PCA test on the rat, time response curve after oral administration; type: in vivo, rat (male Sprague Dawley); details: Rattus norvegicus, oral; for inhibition in vivo at 30 mg/kg: 30 mg/kg/os, read-out: inhibition %; for inhibition in vivo at 10 mg/kg: 10 mg/kg/os
Method: as §2, §3, §4, §5

[5] = Rattus norvegicus, po, 5 minutes before challenge
[6] = 5 min, 5 minutes before challenge
[7] = 0.25 h, 15 minutes before challenge
[8] = 0.5 h, 30 minutes before challenge
[9] = 1 h, 60 minutes before challenge
[10] = 2 h, 120 minutes before challenge

Row | Structure (SMILES) | mortality [1] [%] | No. (dead) (mouse; oral, 1000 mg/kg/os, 8 treated) | inhibition in vivo at 1 mg/kg [2] [%] | inhibition in vivo at 3 mg/kg [2] [%] | ED50 [2] [mg/kg] | inhibition in vivo at 3 mg/kg [3, 5] [%] | inhibition in vivo at 10 mg/kg [3, 5] [%] | inhibition in vivo at 30 mg/kg [3, 5] [%] | inhibition in vivo at 30 mg/kg [4, 6] [%] | inhibition in vivo at 30 mg/kg [4, 7] [%] | inhibition in vivo at 30 mg/kg [4, 8] [%] | inhibition in vivo at 30 mg/kg [4, 9] [%] | inhibition in vivo at 30 mg/kg [4, 10] [%] | inhibition in vivo at 0.3 mg/kg [2] [%] | other results
1 | O=C(/C=C/c1cccs1)Nc1nn[nH]n1 [VAL 47-024, N-1H-tetrazol-5-yl-[3-(2-thienyl)] acrylamide trans isomer] | 0 | 0 | 18.1 | 64.9 | 2.29 | 30.2 | 53.8 | 53.3 | 43.5 | 52.7 | 46.7 | 30.4 | 10.9 |  | inhibition in vivo at 10 mg/kg ([2]; 10 mg/kg): 100%
2 | O=C(/C=C/c1c[nH]c2ccccc12)Nc1nn[nH]n1 [VAL 47-022, N-1H-tetrazol-5-yl-[3-(3-indolyl)]-acrylamide trans isomer] | 0 | 0 | 43.4 | 97.1 | 1.01 | 17.8 | 46.6 | 40.8 | 62.2 | 52.7 | 33.3 | 19.4 | 8.9 | 3.9 | 
3 | O=C(/C=C/c1ccncc1)Nc1nn[nH]n1 [VAL 47-042, N-1H-tetrazol-5-yl-[3-(4-pyridyl)]-acrylamide trans isomer] | 0 | 0 | 41.7 | 77.8 | 1.28 | 0 | 5.3 | 21.4 | 6.3 | 0 | 0.5 | 0 | 0 | 3.9 | 
4 | O=C(/C=C/c1ccccn1)Nc1nn[nH]n1 [VAL 47-055, N-1H-tetrazol-5-yl-[3-(2-pyridyl)]-acrylamide trans isomer] | 0 |  | 47.5 | 85.9 | 1.54 | 28.3 | 52.9 | 81 |  |  |  |  |  | 5.6 | No. (dead) (mouse; mouse, in vivo, po, 1000 mg/kg): 0; inhibition in vivo at 1 mg/kg ([3]; Rattus norvegicus, po, 1 mg/kg, 5 minutes before challenge): 22.5%; ED50 ([3]; Rattus norvegicus, po, 5 min, Table 2, oral administration, 5 minutes before challenge, read-out: ED50 (conf. lim) P = 0.05): 7.94 mg/kg; ED50 OS/ED50 iv ([3]; oral 5 minutes before challenge / i.v. immediately before challenge): 5.15; inhibition in vivo at 10 mg/kg [4, 6]: 45.6%; inhibition in vivo at 10 mg/kg [4, 7]: 0.5%; inhibition in vivo at 10 mg/kg [4, 8]: 0%; inhibition in vivo at 10 mg/kg [4, 9]: 4.7%; inhibition in vivo at 10 mg/kg [4, 10]: 0%
